BindingDB's records for doi:10.7270/Q2736PBV (Broad Institute, 2009)

Target: T1, Streptokinase A (Streptococcus pyogenes serotype M1, UniProt P10520)
T1 sequence (P10520 whole entry): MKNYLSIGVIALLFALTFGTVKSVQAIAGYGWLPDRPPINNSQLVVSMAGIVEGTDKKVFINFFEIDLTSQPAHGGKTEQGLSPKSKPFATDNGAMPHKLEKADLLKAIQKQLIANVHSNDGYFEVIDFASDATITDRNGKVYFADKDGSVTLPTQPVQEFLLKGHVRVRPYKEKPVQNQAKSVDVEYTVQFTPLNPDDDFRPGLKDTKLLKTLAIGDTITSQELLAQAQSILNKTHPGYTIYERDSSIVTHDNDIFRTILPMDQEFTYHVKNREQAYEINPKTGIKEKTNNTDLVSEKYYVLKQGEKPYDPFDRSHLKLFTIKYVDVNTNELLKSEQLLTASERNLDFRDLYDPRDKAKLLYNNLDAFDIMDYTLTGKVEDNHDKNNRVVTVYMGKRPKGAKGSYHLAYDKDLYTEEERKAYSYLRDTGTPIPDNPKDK
Assay: viability-normalized secreted streptokinase activity reduction – plasminogen activation absorbance, OD405, dose response (AID 1914)

| SMILES | EC50 [µM] |
| --- | --- |
| Cc1nc(N=NC(C)c2ccc(Br)cc2)cc(N2CCCCC2)n1 (stereo not given) [N-[1-(4-bromophenyl)ethylideneamino]-2-methyl-6-piperidin-1-ylpyrimidin-4-amine] | 46.7 |
| CC(NNC(=O)c1cc2ccccc2cc1O)=C1C(=O)c2ccccc2C1=O [N-[1-[1,3-bis(oxidanylidene)inden-2-yl]ethylideneamino]-3-oxidanyl-naphthalene-2-carboxamide] | > 150 |
| Cc1ccc2c(c1)=C(NNC(=O)c1ccc(NS(=O)(=O)c3cccs3)cc1)C(=O)N=2 [N-[4-[[(5-methyl-2-oxoindol-3-yl)amino]carbamoyl]phenyl]thiophene-2-sulfonamide] | > 150 |
| O=C(CCCCCNC(=O)c1ccccc1)NNC1=c2cc(Br)cc(Br)c2=NC1=O [N-[6-[2-[5,7-bis(bromanyl)-2-oxidanylidene-indol-3-yl]hydrazinyl]-6-oxidanylidene-hexyl]benzamide] | > 150 |
| CN1c2ccsc2C(NNc2ccccc2)=CS1(=O)=O [N-[(1-methyl-2,2-dioxo-4-thieno[3,2-c]thiazinylidene)amino]aniline] | 4.12 |
| Cc1cc(N=NCc2cccc(Br)c2)nc2ccccc12 [N-[(3-bromophenyl)methylideneamino]-4-methyl-2-quinolinamine] | > 150 |
| O=[N+]([O-])c1cccc(CN=Nc2nc(N3CCCCC3)nc(N3CCCCC3)n2)c1 [N-[(3-nitrophenyl)methylideneamino]-4,6-bis(1-piperidinyl)-1,3,5-triazin-2-amine] | 39.4 |
| CCCCN1C(=O)/C(=N\NC(=O)c2ccccc2NS(=O)(=O)c2cccs2)c2ccccc21 [N-[(Z)-(1-butyl-2-oxoindol-3-ylidene)amino]-2-(thiophen-2-ylsulfonylamino)benzamide] | > 150 |
| Cn1cnnc1SCc1ccc(C(=O)N/N=C2\C(=O)N(Cc3ccc(Cl)cc3)c3ccccc32)cc1 [N-[(Z)-[1-[(4-chlorophenyl)methyl]-2-oxidanylidene-indol-3-ylidene]amino]-4-[(4-methyl-1,2,4-triazol-3-yl)sulfanylmethyl]benzamide] | 18 |
| Cc1ccc(-c2nn(-c3ccccc3)cc2CN=O)cc1 [N-[[3-(4-methylphenyl)-1-phenylpyrazol-4-yl]methylidene]hydroxylamine] | > 150 |
| CN(C)CCN=CC(C(=O)Nc1ccc(Cl)cc1Cl)C(=O)Nc1ccc(Cl)cc1Cl [N~1~,N~3~-bis(2,4-dichlorophenyl)-2-({[2-(dimethylamino)ethyl]amino}methylene)malonamide] | > 150 |
| N#CC1C(=N)SC(=N)C(C#N)C1c1c(Cl)cccc1Cl (stereo not given) [SMR000009709] | 93.5 |
| CCN(CC)c1ccc(C=NC(C#N)C(=N)C#N)cc1 (stereo not given) [SMR000023871] | > 150 |
| Fc1ccc(Br)cc1C1CC(c2ccc(Br)s2)=Nc2ncnn21 (stereo not given) [SMR000032932] | > 150 |
| C=CCN1C(=O)NC(=O)C(=C(C)Nc2ccc(N(CC)CC)cc2)C1=O [SMR000043704] | > 150 |
| CCCCN1C(=O)NC(=O)C(=C(C)Nc2ccc(OCC)cc2)C1=O [SMR000058103] | > 150 |
| CCc1ccc(C2C(C#N)C(=N)C(C#N)(C#N)C3=CCC(C(C)(C)C)CC32)cc1 (stereo not given) [SMR000115124] | 5.84 |
| CCCc1sc(N=NCc2ccccn2)nc1-c1ccc(F)cc1 [SMR000116776] | > 150 |
| CCCc1sc(N=NCc2ccccn2)nc1-c1ccc(Br)cc1 [SMR000116777] | > 150 |
| Oc1ccc2ccccc2c1CN=Nc1nnc(-c2ncc[nH]2)c2ccccc12 [SMR000151639] | 5.52 |
| O=C1C2C(=NC(=S)NC2c2ccc(Cl)cc2)NC(c2ccc(Cl)cc2)N1c1ccc(Cl)cc1 (stereo not given) [SMR000155440] | > 150 |
| CCn1cc(C(=O)O)c(=O)c2cc(F)c(N=NCc3ccccc3[N+](=O)[O-])cc21 [SMR000171611] | > 150 |
| Cc1cc(=O)n(-c2nc(-c3ccccc3)cs2)[nH]1 [SMR000175888] | 10 |
| C=c1[nH][nH]c(=O)c1=Cc1cn(-c2ccccc2)nc1-c1ccc(Cl)cc1 [SMR000193592] | 4.83 |
| CC(Oc1ccc(Cl)cc1Cl)C(=O)Nc1cc(=O)n(-c2ccccc2)[nH]1 (stereo not given) [SMR000195064] | 123 |
